Data set [1] concerns Plasmodium berghei KBG-173. Description: Blood schizontocidal test, oral dosing, P. berghei in mice. Particulars: days 3-5 postinfection. The class given is in vivo, mouse. On the procedure:
Drugs were mixed in 0.5% hydroxycellulose 0.1% Tween 80 and administered orally b.i.d. on days 3, 4 and 5 postinfection. CD-1 male or female mice, 5 weeks of age, were infected with 5×10^4 parasitized erythrocytes of Plasmodium berghei KBG-173 mm strain. Blood films were taken on day +6 and weekly thereafter until day +60. Parasitemias were calculated and SD90 value (dose suppressing 90% of the parasites in treated groups compared with the infected non-treated controls) on day +6 postinfection. Mortality data was tabulated for 60 days at which time all mice surviving that were blood film negative were considered cured. […]

For data set [2], the system named is P. berghei. Kind of data set: Suppressive blood schizontocidal test, single subcutaneous dose, P. berghei in mice. The class given is in vivo, mouse. Particulars: 72 h after infection. On the procedure:
Mice were treated with a single dose of the compound administered subcutaneously 72 h. after infection. Number of cures is the number of mice surviving, out of five, 60 days postinfection.

Data set [3] relates to Plasmodium berghei KBG-173. Kind of data set: Prophylactic test, oral, P. berghei in mice. The class given is in vivo, mouse. The source says: Drugs were mixed in 0.5% hydroxycellulose 0.1% Tween 80 and administered orally b.i.d. either on day 5, 4, 3, 2, or 1 prior to the infection or 1 or 2 days postinfection. CD-I male or female mice, 5 weeks of age, were infected with 5×10^4 parasitized erythrocytes of Plasmodium berghei KBG-173 mm strain. Blood films were taken on day +6 and weekly thereafter until day+30. […]

Data set [4] has as its system mouse. Particulars: strong liver toxicity; cited from earlier work.
Where [5] appears, read: oral dose 0.25 mg/kg/day (total dose 0.75 mg/kg).
[6] abbreviates: oral dose 1.0 mg/kg/day (total dose 3.0 mg/kg).
Setting [7] is: oral dose 4.0 mg/kg/day (total dose 12 mg/kg).
Where [8] appears, read: oral dose 16 mg/kg/day (total dose 48 mg/kg).
Setting [9] is: oral dose 64 mg/kg/day (total dose 192 mg/kg).
The mark [10] stands for this setting: single subcutaneous dose 1 mg/kg.
Setting [11] is: single subcutaneous dose 2 mg/kg.
[12] abbreviates: single subcutaneous dose 4 mg/kg.
The mark [13] stands for this setting: single subcutaneous dose 8 mg/kg.
Where [14] appears, read: single subcutaneous dose 16 mg/kg.
Setting [15] is: single subcutaneous dose 32 mg/kg.
[16] abbreviates: single subcutaneous dose 64 mg/kg.
[17] abbreviates: single subcutaneous dose 128 mg/kg.
[18] abbreviates: single dose of 0.5 mg/kg, day of treatment 1.
Where [19] appears, read: single dose of 0.5 mg/kg, day of treatment 2.
The mark [20] stands for this setting: single dose of 0.5 mg/kg, day of treatment −1.
The mark [21] stands for this setting: single dose of 0.5 mg/kg, day of treatment −2.

As to `CCN(CC)CCCC(C)Nc1ccnc2cc(Cl)ccc12` (centres unmarked) [Chloroquine, reference compound], the “Mice surviving 60 days/Mice infected and treated” value in data set [1] (setting [5]) is 0/7; in data set [1] (setting [6]), 0/7; in data set [1] (setting [7]), 2/7; in data set [1] (setting [8]), 4/7; in data set [1] (setting [9]) it was 0/7.
On to `O=C(CC1NCCC1O)Cn1cnc2cccnc2c1=O` (centres unmarked) [Compound I, 3-[3-(3-Hydroxy-pyrrolidin-2-yl)-2-oxo-propyl]-3H-pyrido[3,2-d]pyrimidin-4-one], for which the “Mice surviving 60 days/Mice infected and treated” value in data set [1] (setting [5]) is on record as 7/7; in data set [1] (setting [6]), 7/7; in data set [1] (setting [7]) it was 7/7; in data set [1] (setting [8]), 7/7; in data set [1] (setting [9]) it was 7/7; in data set [2] (setting [10]) it was 4/5. The “Mice surviving 60 days/Mice infected and treated” value in data set [2] (setting [11]), in data set [2] (setting [12]), in data set [2] (setting [13]), in data set [2] (setting [14]), in data set [2] (setting [15]) and in data set [2] (setting [16]) was 5/5 each time. Also, the “Mice surviving 60 days/Mice infected and treated” value in data set [2] (setting [17]) is recorded as 5/5. Also, the “Mice surviving day 60/Mice infected and treated” value in data set [3] (oral, day of treatment 1, dose 0.5 mg/kg) is reported as 5/5; in data set [3] (oral, day of treatment 1, dose 2 mg/kg), 5/5; in data set [3] (oral, day of treatment 1, dose 8 mg/kg), 5/5; in data set [3] (oral, day of treatment 1, dose 32 mg/kg), 5/5; in data set [3] (oral, day of treatment 2, dose 0.5 mg/kg), 5/5; in data set [3] (oral, day of treatment 2, dose 2 mg/kg), 5/5. Moreover, the “Mice surviving day 60/Mice infected and treated” value was 5/5 in data set [3] (oral, day of treatment 2, dose 8 mg/kg); 5/5 in data set [3] (oral, day of treatment 2, dose 32 mg/kg); 5/5 in data set [3] (oral, day of treatment −1, dose 0.5 mg/kg); 5/5 in data set [3] (oral, day of treatment −1, dose 2 mg/kg); 5/5 in data set [3] (oral, day of treatment −1, dose 8 mg/kg); 5/5 in data set [3] (oral, day of treatment −1, dose 32 mg/kg). Also, the “Mice surviving day 60/Mice infected and treated” value in data set [3] (oral, day of treatment −2, dose 0.5 mg/kg) is given as 5/5; in data set [3] (oral, day of treatment −2, dose 2 mg/kg) it was 5/5; in data set [3] (oral, day of treatment −2, dose 8 mg/kg), 5/5; in data set [3] (oral, day of treatment −2, dose 32 mg/kg) it was 5/5; in data set [3] (oral, day of treatment −3, dose 0.5 mg/kg), 0/5; in data set [3] (oral, day of treatment −3, dose 2 mg/kg), 5/5. Besides, the “Mice surviving day 60/Mice infected and treated” value in data set [3] (oral, day of treatment −3, dose 8 mg/kg) is given as 5/5; in data set [3] (oral, day of treatment −3, dose 32 mg/kg), 5/5. The “Protection from malaria (oral prophylactic activity)” value in data set [3] (single dose of 0.5 mg/kg within 2 days preinfection through 2 days post infection) is listed as “completely protected from malaria”.
Consider `O=C(CC1NCCC1O)Cn1cnc2ccncc2c1=O` (centres unmarked) [Compound II, 3-[3-(3-Hydroxy-pyrrolidin-2-yl)-2-oxo-propyl]-3H-pyrido[4,3-d]pyrimidin-4-one], for which the “Mice surviving 60 days/Mice infected and treated” value in data set [1] (setting [5]) is given as 7/7; in data set [1] (setting [6]) it was 7/7; in data set [1] (setting [7]) it was 7/7; in data set [1] (setting [8]), 7/7; in data set [1] (setting [9]), 7/7; in data set [2] (setting [10]) it was 4/5. The “Mice surviving 60 days/Mice infected and treated” value in data set [2] (setting [11]), in data set [2] (setting [12]), in data set [2] (setting [13]), in data set [2] (setting [14]), in data set [2] (setting [15]) and in data set [2] (setting [16]) was 5/5 in each case. Besides, in data set [2] (setting [17]), the “Mice surviving 60 days/Mice infected and treated” value is recorded as 5/5. Besides, the “Mice surviving day 60/Mice infected and treated” value in data set [3] (setting [18]), in data set [3] (setting [19]), in data set [3] (setting [20]) and in data set [3] (setting [21]) was 5/5 throughout.
`O=C(CC1NCCC1O)Cn1cnc2cccc(F)c2c1=O` (centres unmarked) [Compound III, 5-Fluoro-3-[3-(3-hydroxy-pyrrolidin-2-yl)-2-oxo-propyl]-3H-quinazolin-4-one]: the “Mice surviving 60 days/Mice infected and treated” value in data set [1] (setting [5]) is 5/7; in data set [1] (setting [6]) it was 6/7; in data set [1] (setting [7]) it was 7/7; in data set [1] (setting [8]), 7/7; in data set [1] (setting [9]) it was 7/7; in data set [2] (setting [10]), 4/5. The “Mice surviving 60 days/Mice infected and treated” value in data set [2] (setting [11]), in data set [2] (setting [12]), in data set [2] (setting [13]), in data set [2] (setting [14]), in data set [2] (setting [15]) and in data set [2] (setting [16]) was 5/5 each time. Besides, the “Mice surviving 60 days/Mice infected and treated” value in data set [2] (setting [17]) is given as 5/5. For the same molecule, the “Mice surviving day 60/Mice infected and treated” value in data set [3] (setting [18]), in data set [3] (setting [19]), in data set [3] (setting [20]) and in data set [3] (setting [21]) was 5/5 throughout.
As to `O=C(CC1NCCC1O)Cn1cnc2ccc(F)c(F)c2c1=O` (centres unmarked) [Compound IV, 5,6-Difluoro-3-[3-(3-hydroxy-pyrrolidin-2-yl)-2-oxo-propyl]-3H-quinazolin-4-one], the “Mice surviving 60 days/Mice infected and treated” value was 6/7 in data set [1] (setting [5]); 7/7 in data set [1] (setting [6]); 7/7 in data set [1] (setting [7]); 7/7 in data set [1] (setting [8]); 7/7 in data set [1] (setting [9]); 4/5 in data set [2] (setting [10]). Besides, the “Mice surviving 60 days/Mice infected and treated” value in data set [2] (setting [11]), in data set [2] (setting [12]), in data set [2] (setting [13]), in data set [2] (setting [14]), in data set [2] (setting [15]) and in data set [2] (setting [16]) was 5/5 throughout. Also, the “Mice surviving 60 days/Mice infected and treated” value in data set [2] (setting [17]) was 5/5. For the same molecule, the “Mice surviving day 60/Mice infected and treated” value in data set [3] (setting [18]), in data set [3] (setting [19]), in data set [3] (setting [20]) and in data set [3] (setting [21]) was 5/5 each time.
`O=C(CC1NCCC1O)Cn1cnc2cccc(C(F)(F)F)c2c1=O` (centres unmarked) [Compound V, 3-[3-(3-Hydroxy-pyrrolidin-2-yl)-2-oxo-propyl]-5-trifluoromethyl-3H-quinazolin-4-one]: the “Mice surviving 60 days/Mice infected and treated” value in data set [1] (setting [5]) is listed as 7/7; in data set [1] (setting [6]), 7/7; in data set [1] (setting [7]), 7/7; in data set [1] (setting [8]), 7/7; in data set [1] (setting [9]) it was 7/7; in data set [2] (setting [10]), 4/5. Moreover, the “Mice surviving 60 days/Mice infected and treated” value in data set [2] (setting [11]), in data set [2] (setting [12]), in data set [2] (setting [13]), in data set [2] (setting [14]), in data set [2] (setting [15]) and in data set [2] (setting [16]) was 5/5 in each case. Further, the “Mice surviving 60 days/Mice infected and treated” value in data set [2] (setting [17]) was 5/5. Also, the “Mice surviving day 60/Mice infected and treated” value in data set [3] (setting [18]), in data set [3] (setting [19]), in data set [3] (setting [20]) and in data set [3] (setting [21]) was 5/5 each time.
For `O=C(C[C@H]1NCCC[C@@H]1O)Cn1cnc2ccccc2c1=O` [Febrifugine, reference compound], the “Mice surviving 60 days/Mice infected and treated” value in data set [1] (setting [5]) is on record as 1/7; in data set [1] (setting [6]) it was 2/7; in data set [1] (setting [7]), 5/7; in data set [1] (setting [8]), 0/7; in data set [1] (setting [9]) it was 0/7. Also, in data set [4], the “Dosage at which mouse toxic death occurred” value is given as 10 mg/kg/day.

The values above are taken from patent publication US20080188498A1, “Pyridopyrimidinone compounds with antimalarial activity” (Radix Pharmaceuticals, Inc., priority 2007, published 2008).
